Data as given in patent US11084826B2, “RSV antiviral pyrazolo- and triazolo-pyrimidine compounds” (Janssen Sciences Ireland Unlimited Company, priority 2015, dated 2021).

Key:
rgRSV224 virus = assay: Antiviral activity: inhibition of rgRSV224 (GFP-expressing RSV) replication in HeLa cells, GFP expression read-out; format: cell-based, respiratory syncytial virus (RSV); settings: human respiratory syncytial virus, HeLa, read-out: RSV HELA pEC50, rgRSV224 virus (MOI=1) in HeLa cells, GFP read-out (converted)
Outline: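 HeLa cells (3,000/well) were infected with GFP-expressing rgRSV224 (MOI=1) in the presence of 9 serial 4-fold compound dilutions (0.05% DMSO) and incubated at 37° C, 5% CO2. After three days, GFP expression was measured by laser microscopy. EC50 is the concentration giving 50% inhibition of GFP expression.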

[1] = Cytotoxicity in HeLa cells, ATP content measured with the ATPlite kit; format: cell-based; settings: human, TOX HELA pCC50

Row | Compound | EC50 (rgRSV224 virus) [nM] | CC50 at 3 days [1] [nM] | melting point [°C]
1 | CCc1cc(C(=O)N2CCCCCC2C)nc2cc(-c3ccc(CCC(=O)O)cc3F)nn12 (stereo not drawn) [Compound Q1] | 537 | > 25100 | 125 to 130
2 | CCc1cc(C(=O)N2CCCCCC2C)nc2cc(-c3ccc4c(c3)CC(=O)N4)nn12 (stereo not drawn) [Compound A8] | 646 | > 25100 | 230 to 235
3 | CCc1cc(C(=O)N2CCc3sccc3C2C)nc2cc(-c3cccc(/C=C/C(=O)O)c3F)nn12 (racemic) [Compound M48] | 12.9 | > 25100 | 255.5
4 | CCc1cc(C(=O)N2CCCCCC2C)nc2cc(-c3ccc(NC(=O)OCCO)cc3F)nn12 (stereo not drawn) [Compound C4] | 110 | > 25100 | 175 to 180
5 | CCc1cc(C(=O)N2CCCCCN2C)nc2cc(-c3ccc(-c4ccc(C(=O)O)cn4)cc3F)nn12 [Compound F35] | 162 | > 100000 | 268.78
6 | CC1CCCCCN1C(=O)c1cc(N2CCCCC2)n2nc(-c3ccc(NC(=O)C4CC4)cc3)cc2n1 (stereo not drawn) [Compound E18] | 1260 | > 25100 | 299 to 300
7 | CCOc1cc(C(=O)N2CCCCC[C@H]2C)nc2cc(-c3ccc(/C=C/C(=O)O)cc3F)nn12 [Compound M24] | 380 | > 100000 | 213.66
8 | CCc1cc(C(=O)N2CCCCCC2C)nc2cc(-c3csc(NC(=O)C4CC4)n3)nn12 (stereo not drawn) [Compound E30] | 1820 | > 25100 | 277 to 279
9 | CCc1cc(C(=O)N2CCCCCC2C)nc2nc(-c3ccc(NC(=O)C4CC4)cc3F)nn12 (stereo not drawn) [Compound T1] | 550 | > 100000 | 210 to 215
10 | CCc1cc(C(=O)N2CCc3ccccc3C2C)nc2cc(-c3ccc(C(=O)O)cc3F)nn12 (stereo not drawn) [Compound K1] | 158 | > 25100 | 165 to 170
11 | CCc1cc(C(=O)N2CCCCCC2C)nc2cc(-c3ccc(N4C(=O)CCC4=O)cc3F)nn12 (stereo not drawn) [Compound E26] | 407 | > 25100 | 190 to 195
12 | CCc1cc(C(=O)N2CCCCCC2C)nc2cc(-c3ccc(S(=O)(=O)N(C)C)cc3F)nn12 (stereo not drawn) [Compound P1] | 2820 | > 25100 | 120
13 | C[C@@H]1c2ccccc2CCN1C(=O)c1cc(C2CC2)n2nc(-c3ccc(N4CC[C@H](C(=O)O)C4)cc3F)cc2n1 [Compound W38] | 5.75 | 46800 | 214
14 | CCc1cc(C(=O)N2CCn3nccc3C2C)nc2cc(-c3ccc(/C=C/C(=O)O)cc3F)nn12 (stereo not drawn) [Compound M41] | 794 | > 25100 | 225 to 230
15 | CCCC(C)N(C)C(=O)c1cc(CC)n2nc(-c3ccc(NC(=O)NCC4CCCO4)cc3F)cc2n1 (stereo not drawn) [Compound B2] | 407 | > 100000 | 180 to 185
16 | C[C@@H]1CCCCCN1C(=O)c1cc(C2(C)CC2)n2nc(-c3ccc(/C=C/C(=O)O)cc3F)cc2n1 [Compound M20] | 32.4 | 36300 | 228.12
17 | CCc1cc(C(=O)N2CCCCC[C@H]2C)nc2cc(-c3ccc(C#N)cc3F)nn12 [Compound H4] | 661 | > 25100 | 96
18 | CC1CCCCCN1C(=O)c1cc(N(C)C)n2nc(-c3ccc(C#N)cc3F)cc2n1 (stereo not drawn) [Compound H2] | 912 | > 25100 | 194 to 195
19 | CCc1cc(C(=O)N2CCCCC2C)nc2cc(-c3ccc(NC(=O)NCC4CCCO4)cc3)nn12 (stereo not drawn) [Compound B7] | 631 | > 100000 | 175 to 180
20 | CCc1cc(C(=O)N2CCCCCC2C)nc2cc(-c3ccc4c(c3)CCN4C)nn12 (stereo not drawn) [Compound A10] | 2090 | > 25100 | 155

Row | Compound | EC50 (rgRSV224 virus) [nM] | CC50 at 3 days [1] [nM] | melting point [°C]
21 | CCc1cc(C(=O)N2CCCCCC2C)nc2cc(-c3ccc(C(=O)NCCO)cc3F)nn12 (stereo not drawn) [Compound L5] | 158 | > 25100 | 177
22 | CCc1cc(C(=O)N2CCCCCC2C)nc2cc(-c3ccc(NC(=O)C4(C)CC4)cc3F)nn12 (stereo not drawn) [Compound E8] | 468 | > 25100 | 225 to 230
23 | CCc1cc(C(=O)N2CCCCC[C@H]2C)nc2cc(-c3ccc(N4CC[C@@](C)(C(=O)O)C4)cc3F)nn12 [Compound W50] | 44.7 | 74100 | 110.2
24 | C[C@@H]1CCCCCN1C(=O)c1cc(-c2cnn(C)c2)n2nc(-c3ccc(/C=C/C(=O)O)cc3F)cc2n1 [Compound M30] | 40.7 | 28200 | 163
25 | CCc1cc(C(=O)N2CCCCCC2C)nc2cc(-c3ccc(/C=C/C(N)=O)cc3F)nn12 (stereo not drawn) [Compound N1] | 129 | > 25100 | 140 to 145
26 | CC1CCCCCN1C(=O)c1cc(N(C)C2CCCCC2)n2nc(-c3ccc(NC(=O)NCC4CCCO4)cc3)cc2n1 (stereo not drawn) [Compound B12] | 191 | > 100000 | 181 to 182
27 | CCc1cc(C(=O)N2CCCCCC2C)nc2cc(-c3ccc(NC(=O)CCC(N)=O)cc3F)nn12 (stereo not drawn) [Compound E25] | 61.7 | > 25100 | 155 to 160
28 | CCc1cc(C(=O)N2CCCCC[C@H]2C)nc2cc(-c3ccc(N4CCC(CO)(C(=O)O)C4)cc3F)nn12 (stereo partly drawn) [Compound W18] | 81.3 | > 100000 | 276.58
29 | CCc1cc(C(=O)N2CCCCCC2C)nc2cc(-c3ccc(C(=O)NS(C)(=O)=O)cc3F)nn12 (stereo not drawn) [Compound L10] | 2690 | > 25100 | 194
30 | C[C@@H]1CCCCCN1C(=O)c1cc(C2CCC2)n2nc(-c3ccc(-n4cc(C(=O)O)cn4)cc3F)cc2n1 [Compound W9] | 46.8 | 51300 | 142.16
31 | CCc1cc(C(=O)N2CCc3sccc3[C@H]2C)nc2cc(-c3ccc(-n4cc(C(=O)O)cn4)cc3F)nn12 (racemic) [Compound W40] | 21.9 | 36300 | 168.11
32 | CCc1cc(C(=O)N2CCCCCC2C)nc2cc(-c3ccc(NC(=O)CCC(=O)N(C)C)cc3F)nn12 (stereo not drawn) [Compound E28] | 117 | > 25100 | 180 to 185
33 | CCc1cc(C(=O)N2CCCCCC2C)nc2c(F)c(-c3ccc(NS(C)(=O)=O)cc3F)nn12 (stereo not drawn) [Compound D4] | 490 | > 25100 | 210 to 212
34 | C[C@@H]1CCCCCN1C(=O)c1cc(C2CC2)n2nc(-c3ccc(N4CC[C@H](C(=O)O)C4)cc3F)cc2n1 [Compound W51] | 38.9 | 69200 | 203.3
35 | CCc1cc(C(=O)N2CCCCC[C@H]2C)nc2nc(-c3cccs3)nn12 (racemic) [Compound S1] | 832 | > 100000 | 162 to 163
36 | CCc1cc(C(=O)N2CCCCCC2C)nc2cc(-c3ccc(NC(=O)NC4CC4)cc3)nn12 (stereo not drawn) [Compound B8] | 240 | 17000 | 240 to 245
37 | CCc1cc(C(=O)N2CCCCCC2C)nc2cc(-c3ccc(NC(=O)OCC4CCCN4C)cc3F)nn12 (stereo not drawn) [Compound C5] | 178 | 13800 | 165 to 170
38 | CCc1cc(C(=O)N2CCCCCC2C)nc2cc(-c3ccc(C(=O)NCc4ccco4)cc3F)nn12 (stereo not drawn) [Compound L7] | 240 | > 25100 | 168
39 | CCc1cc(C(=O)N2CCn3c(C)ccc3C2C)nc2cc(-c3ccc(/C=C/C(=O)O)cc3F)nn12 (stereo not drawn) [Compound M42] | 191 | > 25100 | 240 to 245
40 | CCc1cc(C(=O)N2CCCCCC2C)nc2c(F)c(-c3ccc(C(N)=O)cc3)nn12 (stereo not drawn) [Compound J2] | 263 | > 25100 | 195 to 200
